The conditions of data set [1]: rat, in vivo. The method, then: Rats, weighing more than 400 g, were put in metabolic cages and fasted overnight with free access to water before experiments. […] The intravenous preparations were freshly dissolved in 20% DMSO/NSS for injection. The oral preparations were freshly prepared by suspending the test compound in 0.5% CMC. To reduce pain and injury during drug administration and blood collection, rats were anesthetized with 5% isoflurane by chamber induction. Serial blood samples (300 μL) were collected at 0, 5, 15, and 30 min, and at 1, 2, 4, 8, and 24 h after dosing. Blood samples were centrifuged at 5000 g for 10 min, and plasma was collected and stored at − 20 °C until analysis. Determination of aspartate transaminase (AST), alanine transaminase (ALT), and creatinine levels were performed at pre-dosing, and at 0 h and 24 h after dosing. Creatinine level was determined by enzymatic Roche Cobas 6000 analyzer. In this enzymatic method creatinine is converted to creatine under the activity of creatininase. Creatine is then acted upon by creatinase to form sarcosine and urea. Sarcosine oxidase converts sarcosine to glycine and hydrogen peroxide, and the hydrogen peroxide reacts with chromophore in the presence of peroxidase to produce a color product that is measured at 546 nm (secondary wavelength = 700 nm). This is an endpoint reaction that agrees well with recognized HPLC methods, and it has the advantage over Jaffe picric acid-based methods that are susceptible to interferences from non-creatinine chromogens. For tissue collection, the rats was euthanized with isoflurane after oral dosing the test compound at 100 mg/kg for 7 days. After the dead was confirmed, spleen and blood were immediately collected, washed with normal saline solution, and send to immunology laboratory for further experiments. The control group received oral gavage of 0.5% CMC as vehicle control. All animal procedures were complied with the ethical principles and guidelines for the use of animals (National Research Council of Thailand, 2015).
All pharmacokinetic parameters were computed by non-compartmental analysis using PK Solution 2.0 software (Summit Research Service, USA). […] The absolute oral bioavailability was calculated as (AUCp.o. ÷ dose p.o.) ÷ (AUCi.v. ÷ dose i.v.). Pharmacokinetic data are presented as mean ± standard deviation. Blood chemical parameters were analyzed by Mann–Whitney U-test to compare the significance of differences between pre-dosing and 24 h post-dosing, with a p-value of less than 0.05. All statistical analyses were calculated using SPSS version 16 (SPSS, Inc., USA). […] The data were analyzed with an unpaired Student’s t-test. A p-value of < 0.05 was considered statistically significant.

For data set [2], the system named is P-glycoprotein. Also noted: method as in PMID 24091240. The following applies: affecting the level of absorbed compound; cited from earlier work.
In data set [3] the test system is multidrug-resistant protein 2. Also on record: method as in PMID 24091240. The following applies: affecting the level of absorbed compound; cited from earlier work.

Regarding `C[C@H]1[C@H](C)CC[C@]2(C(=O)O[C@@H]3O[C@H](CO[C@@H]4O[C@H](CO)[C@@H](O[C@@H]5O[C@@H](C)[C@H](O)[C@@H](O)[C@H]5O)[C@H](O)[C@H]4O)[C@@H](O)[C@H](O)[C@H]3O)CC[C@]3(C)C(=CC[C@@H]4[C@@]5(C)C[C@@H](O)[C@H](O)[C@@](C)(CO)[C@@H]5[C@H](O)C[C@]43C)[C@H]12` [Madecassoside, madecassoside], in data set [1], the “ALT, Post-dose (24 h)” value was determined as 24.00 ± 4.85 U/L; the “ALT, Pre-dose (0 h)” value is reported as 23.80 ± 2.59 U/L; the “AST, Post-dose (24 h)” value is given as 63.20 ± 16.81 U/L; the “AST, Pre-dose (0 h)” value was determined as 46.20 ± 4.87 U/L. Further, in data set [1], the “Creatinine, Post-dose (24 h)” value stood at 0.67 ± 0.05 mg/dL; the “Creatinine, Pre-dose (0 h)” value is 0.64 ± 0.04 mg/dL; the “Physical appearance, Post-dose (24 h)” value is on record as “Normal”; the “Physical appearance, Pre-dose (0 h)” value is “Normal”. Moreover, in data set [2], the “Substrate for P-glycoprotein” value was “substrate”. For the same molecule, in data set [3], the “Substrate for multidrug-resistant protein 2” value is reported as “substrate”.
